We go through 4 molecules from patent US6664271B1, “Immunopotentiator agents” (Eli Lilly and Company, priority 1999, dated 2003).

In one data set the test system is chicken leukocytes. Briefly: cells. The class given is cell-based. The following applies: for minimal effective concentration: Gallus gallus, Leukocyte, read-out: MSC (Minimum Stimulatory Concentration); for MTC (Maximum Tolerable Concentration prior to causing cytotoxicity): Hubbard/Peterson broiler, chicken, 72 h. The protocol: Various compounds of Formula I were evaluated for in vitro T-lymphocyte blastogenic activity with chicken leukocytes according to the steps described in the following procedure:
(a) Exsanguination step. The leukocytes were obtained from 3-6 week old Hubbard/Peterson broiler chickens. Initially, the chickens were rendered unconscious in a CO2 chamber. The chickens were then exsanguinated via cardiac puncture. In the exsanguination procedure, a syringe was connected to a needle, and the needle was inserted into the area at the base of the neck under the “V” formed by the breast and sternum. After the needle was properly inserted, continuous vacuum was applied to a syringe (connected to the needle) by pulling back on the plunger. It is important to promptly carry out this withdrawal action, because there is only a 10-15 seconds time period after the blood has starting flowing into the syringe before the blood coagulates, and becomes unusable. As soon as the syringe is full (or prior to complete filling if too much time has elapsed such that the blood begins to coagulate), the whole uncoagulated blood is transferred to a tube having the anticoagulant EDTA therein. The tube is then rotated to mix the whole blood and the EDTA. Alternatively, the whole blood can be withdrawn directly into a vacuum container already having EDTA therein, rather than into a syringe.
(b) Leukocyte isolation step. Numerous methods for isolating leukocytes from (uncoagulated) whole blood are known in the art. In a preferred method, the sterile whole blood was combined with methylcellulose (1.5:1). Any blood containing clots was discarded. The mixture was centrifuged at 30×g for ten minutes (300 rpm on Beckman GS-6R centrifuge). The top layer (leukocytes in supernatant) was decanted into a sterile 50 ml conical tube, while taking care to prevent contamination of the sample by red blood cells. The decanted layer was then centrifuged at 200×g for ten minutes (1500 rpm on the Beckman GS-6R centrifuge). The supernatant liquid was discarded, and the resulting cell “pellet” was retained.
The cells were then washed in a solution containing 10 ml PBS (phosphate buffered saline) and Gentamycin (gentamicin sulfate) at a concentration of 50 μg/ml. This solution was centrifuged at 100×g (1000 rpm on the Beckman centrifuge) for five minutes, and the supernatant liquid was discarded. The washing step (including the centrifuging at 100×g) was repeated to ensure complete removal of the methylcellulose. The use of media such as DMEM ([…]) was avoided in the washing steps, since such media may cause agglutination of the white blood cells. Finally, the cells were then suspended in an appropriate media, such as RPMI 1640 tissue cell culture medium, supplemented with phenol red, NaHCO3, and L-Glutamide. Supplemented RPMI 1640 is available from Sigma-Aldrich Chemical Co.
(c) Cell counting and cell viability step. The cells were counted and checked for viability using the Trypan Blue method of exclusion. 0.1 ml of the cell suspension was placed in a 4-5 ml small culture tube along with 0.7 ml HBSS (Hank's Buffered Saline Solution), available from Sigma-Aldrich, and 0.2 ml of a 0.4% solution of aqueous Trypan Blue stain, available from GIBCO BRL, of Grand Island, N.Y. The components were mixed thoroughly but gently, and allowed to sit for 5 minutes (no longer than 15 minutes). The components should not be exposed to the stain for extended periods of time, because such extended exposure may permit viable cells, as well as non-viable cells, to take up dye.
A cover slip was placed on a Bright Line hemacytometer, available from Howser Scientific, and 10 μl of the mixture from the tube was transferred to each chamber. Non-viable cells appear blue under a microscope. The viable cells in one of the 16-square corners of the hemacytometer were then counted. […]

Another data set concerns E. coli. Description: colibacillosis infection model in broiler chickens, Trial A (Example 78). The class given is in vivo, chicken. Conditions: 2 μg/chick subcutaneous.
A further data set has as its system E. coli 19B. Briefly: bacterial clearance of E. coli from peripheral blood of neonatal chicks (Example 77). Format: in vivo, chick. The following applies: single subcutaneous injection of 25 μg, E. coli challenge, blood 14-18 hours post-challenge. As for the experimental part: The compounds of Example 15 ((S)-ethyl 1-benzoyl-3-piperidinecarboxylate), Example 29 (1-benzoyl-3-butyrylpiperidine), Example 30 ((S)-ethyl 1-(2-thiopheneacetyl)-3-piperidinecarboxylate) and Example 68 ((S)-ethyl 1-benzyl-3-piperidinecarboxylate 1-methiodide), respectively, were tested to determine whether a single subcutaneous injection enhanced the bacterial clearance of E. coli from the peripheral blood of neonatal chicks. Bacterial clearance is a measurement of cell-mediated immunity, specifically, phagocyte function, in animals. An approved Animal Care and Use Committee protocol governed the activity in this experiment.
1 ml syringes with 21 g 1″ needles (Becton Dickinson and Company Franklin Lakes, N.J. 07417-1884); 1 ml syringe with 25 g ⅝″ needles (Becton Dickinson and Company Franklin Lakes, N.J. 07417-1884); EMB agar plates (Difco Laboratories, Becton Dickinson Microbiology Systems, Sparks, Md. 21152); Culture tubes (14 ml polystyrene round bottom, Becton Dickinson Labware, Franklin Lakes, N.J. 07417-1886); Dulbecco's Phosphate Buffered Saline w/o Mg^++ or Ca^++ (Gibco BRL, Life Technologies Rockville, Md. 20850). Peterson x Hubbard male chicks (day of hatch from a commercial hatchery) were utilized
160 chicks were divided into 6 groups: Group 1=Controls (acetate-buffered saline vehicle); Group 2=Compound of Example 15 ((S)-ethyl 1-benzoyl-3-piperidinecarboxylate); Group 3=Compound of Example 29 (1-benzoyl-3-butyrylpiperidine); Group 4=Compound of Example 30 ((S)-ethyl 1-(2-thiopheneacetyl)-3-piperidinecarboxylate); Group 5=Compound of Example 68 ((S)-ethyl 1-benzyl-3-piperidinecarboxylate 1-methiodide); and Group 6=environmental controls. Groups 1-5 contained 3 replicates of 10 chicks each and Group 6 contained 1 replicate of 10 chicks.
Day −2 Upon arrival, day of hatch chicks were randomized (10/group), and placed in a Petersime heated brooder battery unit (Petersime Incubator Company, Gettysburg, Ohio 45328). […] All chicks were given ad libitum access to a commercially available starter feed and water.
Day 0 11:00 AM. Five to ten colonies of E. coli 19B were selected from a fresh overnight blood agar plate (TSA II with 5% sheep blood, Becton Dickinson Microbiology Systems Cockeysville, Md. 21030) and placed into 100 ml Brain Heart Infusion broth (Difco Laboratories, Becton Dickinson Microbiology Systems Sparks, Md. 21152) in a flask. […]
Day 5 EMB plates were removed from the incubator and bacterial colonies were counted and recorded to calculate CFU/ml/chick.
Data was transformed to logio values, and analysis of variance was used to determine significant differences between the treatment groups and controls. Data was expressed as the percentage of enhancedbacterial clearance compared to E. coli-challenged controls. […]

The mark [1] stands for this setting: chicken leukocytes, read at 72 hours.

Marks after values point to notes of the source that are not given here.

As for `CCOC(=O)C1CN(C(=O)NC)CCC1=O` (centres unmarked) [Example 11, Ethyl 1-(N-Methylaminocarbonyl)-4-oxo-3-piperidinecarboxylate], the minimal effective concentration in the data set on chicken leukocytes (setting [1]) stood at 0.001 µg/mL. In the data set on chicken leukocytes, the “MTC (Maximum Tolerable Concentration prior to causing cytotoxicity)” value (“MTC” below) is 1 µg/mL. Further, in the data set with E. coli, the “% Colibacillosis-associated Mortality” value is reported as 14.0%, the “% Total Mortality” value is listed as 16.5* %, the “Average Weight Gain/Bird” value was 1.40 lb (635 g) and the Feed/Gain came out at 1.35.

`CCOC(=O)[C@H]1CCCN(C(=O)c2ccccc2)C1` [Example 15, (S)-Ethyl 1-Benzoyl-3-piperidinecarboxylate]: the minimal effective concentration in the data set with chicken leukocytes (setting [1]) turned out to be 0.1 µg/mL. In addition, the “MTC” value in the data set on chicken leukocytes was 10 µg/mL. In addition, the “% Enhanced Clearance Compared to Controls” value with E. coli 19B was 34* %.

For the molecule `CCCC(=O)C1CCCN(C(=O)c2ccccc2)C1` (centres unmarked) [Example 29, 1-Benzoyl-3-butyrylpiperidine], in the data set with chicken leukocytes (setting [1]), the minimal effective concentration was 1 µg/mL. For the same molecule, the “MTC” value in the data set on chicken leukocytes is 10 µg/mL. In the data set on E. coli 19B, the “% Enhanced Clearance Compared to Controls” value was 33* %.

Consider `CCOC(=O)C1CCC[N@+](C)(Cc2ccccc2)C1.[I-]` (stereo partly drawn) [Example 68, (S)-Ethyl 1-Benzyl-3-piperidinecarboxylate 1-methiodide], for which the “MSC (Minimum Stimulatory Concentration)” value in the data set on chicken leukocytes (setting [1]) turned out to be 1 µg/mL. For the same molecule, in the data set on E. coli 19B, the “% Enhanced Clearance Compared to Controls” value is 50* %.
